Series [1] has as its system vagal afferent nerves (TRPV1) in the stomach. In words: Nausea and vomiting induced by balloon inflation in the jejunum, behavioral emetic score. It is filed as in vivo, dog. To be noted: dogs, one week after 250 ml of a 100 nM solution sprayed endoscopically onto gastric mucosa; baseline 26.3±4.0; p=0.01. Here is the method: (§1) Nausea and vomiting was induced using either balloon distention or intra-venous infusion of vasopressin (0.5 U/Kg infused over 20 minutes). Untreated represents control or baseline mean score of the emetic response was 26.3±4.0 and 29.0±6.2 for balloon distention and vasopressin stimuli respectively. Following, Resiniferatoxin infusion (250 ml of a 100 nM solution): the mean score with balloon distention was 11.7±4.2 (p=0.01) while the mean score with vasopressin was 16.3±5 (p=0.05).
(§2) Four dogs with surgically created jejunocutaneous fistulae 20 cm distal to the pylorus were used in this study. Nausea and vomiting were induced using two different stimuli, both of which are vagally dependent, at least in part: (1) Balloon inflation in the jejunum (2) Intravenous vasopressin infusion (0.5 U/Kg infused over 20 minutes). Nausea was assessed using a previously validated behavioral scoring system in addition to counting actual episodes of vomiting. After baseline observations, resiniferatoxin (250 ml of a 100 nM solution) was administered endoscopically using a spray catheter to coat the mucosal lining of the stomach under general anesthesia into the stomach. One week later, the response to balloon distention and vasopressin infusion was recorded again.

For series [2] the test system is unchanged. Nature of the series: Nausea and vomiting induced by intravenous vasopressin infusion, behavioral emetic score. To be noted: dogs, vasopressin 0.5 U/Kg iv over 20 minutes, one week after 250 ml of a 100 nM solution sprayed endoscopically; baseline 29.0±6.2; p=0.05. It is filed as in vivo, dog. Here is the method:
as §1, §2

Series [3] is described as follows: General observation of dogs after endoscopic resiniferatoxin spray. The series is classed as in vivo, dog. The following applies: after endoscopic gastric spray of 250 ml of a 100 nM solution. Here is the method: as §2
The subject of series [4] is ferrets. To be noted: subcutaneous; cited from earlier work.
For the next series, the system named is Suncus murinus. To be noted: subcutaneous; cited from earlier work.
For series [5], the system named is ferrets. To be noted: subcutaneous; cited from earlier work. This is another data set of the same source.
For a further series, the system named is dogs. The following applies: subcutaneous; cited from earlier work.

SMILES strings stand for the structures.

The text below walks through data of US8211941B2, “Antagonists of the transient receptor potential vanilloid 1 and uses thereof” (The Board of Regents of the University of Texas System, priority 2007, dated 2012).

For the compound `C=C(C)[C@]12C[C@@H](C)[C@@]34O[C@](Cc5ccccc5)(O[C@@H]1[C@@H]3C=C(COC(=O)Cc1ccc(O)c(OC)c1)C[C@]1(O)C(=O)C(C)=C[C@@H]41)O2` [Resiniferatoxin], the “mean score of the emetic response with balloon distention” value in series [1] is 11.7±4.2. The “mean score of the emetic response with vasopressin” value in series [2] was 16.3±5. Besides, in series [3], the body weight change entry is “minor weight loss” and the “general health of dogs” value is recorded as “appeared healthy”. Besides, the “effect on copper sulphate, whole body radiation and Loperamide induced emetic response” value in the series with ferrets [4] is on record as “blocked”. The “emetic / anti-emetic properties” value with Suncus murinus was “initial emetic followed by anti-emetic properties”. Besides, in the series with ferrets [5], the “effect on acute and delayed cisplatin and apomorphine induced emesis” value is “inhibited”. Also, the “effect on acute and delayed cisplatin and apomorphine induced emesis” value with dogs is listed as “inhibited”.
